Test results published in patent US20250101062A1, “ANTIMICROBIAL PEPTIDES” (Board of Regents of the University of Nebraska, priority 2023, published 2025).
Where no end group is shown, it is not given here.

Key:
E. coli E423-17 = format: cell-based, Escherichia coli; conditions: MHB 100%
P. aeruginosa E411-17 = experiment: Membrane depolarization (DiBAC4(3)); format: cell-based, Pseudomonas aeruginosa; conditions: Example 2, PBS with glucose
Method: Bacterial membrane depolarization was conducted (Marks, et al. (2013) PLoS One 8(5):e63158). Briefly, an overnight culture of MRSA USA300 or P. aeruginosa E411-17 was inoculated into TSB and grown to exponential phase. Bacteria were washed with 1×PBS, re-suspended in twice the volume of 1×PBS containing 25 mM glucose, and incubated at 37° C. for 15 minutes. Then, 500 nM (final concentration) of the DiBAC4 (3) bis-(1, 3-dibutylbarbituric acid) trimethine oxonol (ANASPEC, CA) was added and vortexed gently. Aliquots of 90 μL of the energized bacteria solution were loaded to the 96 well plates (Corning COSTAR, AZ) and placed in a FLUOstar® Omega microplate reader (BMG LABTECH, NC). Fluorescence was read for 20 minutes at excitation and emission wavelengths of 485 nm and 520 nm, respectively. Then, 10 μL of peptide solutions was added and fluorescence readings were recorded for 40 minutes. Triton® X-100 (0.1%) was used as a positive control.

pepsin = target: T1, pepsin (Sus scrofa, UniProt P00791); format: in vitro ADME, mammalian
T1 construct: purchased Thermo Fisher Scientific
T1 sequence (P00791 60-385): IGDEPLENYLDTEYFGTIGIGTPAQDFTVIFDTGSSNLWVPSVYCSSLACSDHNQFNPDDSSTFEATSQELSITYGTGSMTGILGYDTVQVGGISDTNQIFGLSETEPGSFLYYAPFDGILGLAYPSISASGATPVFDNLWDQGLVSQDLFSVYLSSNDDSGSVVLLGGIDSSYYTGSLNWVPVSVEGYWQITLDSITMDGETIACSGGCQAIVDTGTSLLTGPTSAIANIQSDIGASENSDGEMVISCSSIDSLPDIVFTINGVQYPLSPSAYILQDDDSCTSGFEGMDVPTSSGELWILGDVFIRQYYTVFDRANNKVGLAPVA
Method: A solution of peptide/protease (40:1 molar ratio) was made in phosphate-buffered saline (PBS; pH 7.1, Gibco, NY) and incubated at 37° C. for 1 hour. As controls, peptides without proteases were also incubated in the same manner. Then, aliquots of 10 μL were transferred to a 96-well polystyrene microplate and mixed with the exponential-phase MRSA USA300 culture as performed in the antibacterial activity assays above.

S. aureus USA300 LAC = experiment: Scanning electron microscopy; format: cell-based, Staphylococcus aureus; conditions: 2×MIC, 30 minutes
Method: The exponential-phase S. aureus USA300 LAC was treated with a 2×MIC of LL-37mini for 30 minutes. Samples were washed three times with 1×PBS and fixed with 2% paraformaldehyde and 2% glutaraldehyde in 0.1 M PBS. Next, the samples were washed with Sorensen's buffer and postfixed in 1% osmium tetroxide in water for 30 minutes. All samples were then washed in Sorensen's buffer and dehydrated through a graded ethanol series (50, 70, 90, 95, and 100% with ×3 changes). Subsequently, samples were placed in […] 100% for 10 minutes with three changes and left in HMDS in open dishes in the fume hood overnight to allow the HMDS to evaporate. The following day, the samples were mounted on 25 mm aluminum SEM stubs with carbon adhesive tabs. Silver paste was placed around the edges of the samples. Samples were sputter coated with 50 nm of gold/palladium in a Hummer VI sputter coater (Anatech Ltd., Battle Creek, MI) and examined in an FEI Quanta 200 SEM at the UNMC Electron Microscopy Core Facility.

human red blood cells = experiment: Hemolytic assay; format: cell-based; conditions: human, 1 h, 400 μM
How it was run: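 Washed human erythrocytes at 2% in isotonic saline incubated 1 h at 37 °C with serially diluted peptides. After centrifugation, released hemoglobin read at 545 nm relative to 1% Triton X-100; HC50 is the peptide concentration giving 50% lysis.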

Compound: CC[C@H](C)[C@H](NC(=O)[C@H](CCCCN)NC(=O)[C@H](CCC(=O)O)NC(=O)[C@H](CCCCN)NC(=O)[C@H](CO)NC(=O)[C@H](CCCCN)NC(=O)[C@H](CCCNC(=N)N)NC(=O)[C@H](Cc1ccccc1)NC(=O)[C@H](Cc1ccccc1)NC(=O)[C@H](CC(=O)O)NC(=O)CNC(=O)[C@H](CC(C)C)NC(=O)[C@@H](N)CC(C)C)C(=O)NCC(=O)N[C@@H](CCCCN)C(=O)N[C@@H](CCC(=O)O)C(=O)N[C@@H](Cc1ccccc1)C(=O)N[C@@H](CCCCN)C(=O)N[C@@H](CCCNC(=N)N)C(=O)N[C@H](C(=O)N[C@H](C(=O)N[C@@H](CCC(N)=O)C(=O)N[C@@H](CCCNC(=N)N)C(=O)N[C@H](C(=O)N[C@@H](CCCCN)C(=O)N[C@@H](CC(=O)O)C(=O)N[C@@H](Cc1ccccc1)C(=O)N[C@@H](CC(C)C)C(=O)N[C@@H](CCCNC(=N)N)C(=O)N[C@@H](CC(N)=O)C(=O)N[C@@H](CC(C)C)C(=O)N[C@H](C(=O)N1CCC[C@H]1C(=O)N[C@@H](CCCNC(=N)N)C(=O)N[C@H](C(=O)N[C@@H](CCC(=O)O)C(=O)N[C@@H](CO)C(=O)O)[C@@H](C)O)C(C)C)[C@@H](C)CC)C(C)C)[C@@H](C)CC [LL-37]
- Antimicrobial activity (MIC) (E. coli E423-17): active
- membrane depolarization (P. aeruginosa E411-17): most powerful in membrane depolarization

Compound: RRWWRWWR-NH2 [W543]
- activity after protease incubation (pepsin): retained antibacterial activity
- cell morphology by SEM (S. aureus USA300 LAC): cell damages were evident

Compound: CCCCCCCCCC(=O)N[C@@H](Cc1c[nH]c2ccccc12)C(=O)N[C@H](CC(N)=O)C(=O)N[C@@H](CC(=O)O)C(=O)N[C@@H]1C(=O)NCC(=O)N[C@@H](CCCN)C(=O)N[C@@H](CC(=O)O)C(=O)N[C@H](C)C(=O)N[C@@H](CC(=O)O)C(=O)NCC(=O)N[C@H](CO)C(=O)N[C@@H]([C@H](C)CC(=O)O)C(=O)N[C@@H](CC(=O)c2ccccc2N)C(=O)O[C@@H]1C [Daptomycin]
- hemolysis (human red blood cells): did not lyse human red blood cells even at 400 μM
